We go through 33 compounds from patent US4888347A, “Use of specific N-methyl-D-aspartate receptor antagonists in the prevention and treatment of neurodegeneration” (Merck Sharp & Dohme Limited, priority 1986, dated 1989).

Each structure is given as a SMILES string. Where two headings read alike, the source gives them in different places.

Assay [1] addresses N-methyl-D-aspartate (NMDA) receptors ([3H]-MK-801 binding). As to the kind of experiment: Displacement of [3H]-MK-801 binding, crude synaptosomal membrane fraction (P2) from rat cerebral cortex. To be noted: displacement of [3H]-MK-801, rat cerebral cortex membranes. As for the experimental part:
The compounds useful in the novel method of treatment of this invention bind with a high affinity and in a reversible and saturable manner to membranes from rat brain cortex. In addition these useful compounds potently and selectively block responses to NMDA in a brain slice from rate cortex, the antagonism apparently being non-competitive.
Binding of [^3 H]-MK-801 to rat brain in vitro was conducted in a crude synaptosomal membrane fraction (P2) prepared from rat cerebral cortex according to a modified method of Hulme et al, Molecular Pharmocology 14, 737-750 (1978).

Assay [2] concerns responses to quisqualate. As to the kind of experiment: Rat cortical slice, responses to quisqualate. The assay is classed as cell-based. The following applies: doses of up to 30 μM. As for the experimental part:
(§1) The effects of MK-801 and its analogs on responses to NMDA and quisqualate were assessed using the rat cortical slice as described by Harrison et al., Brit. J. Pharmacol, 84, 381-391 (1985). Cortical neurons in this preparation are depolarized by bath applications of NMDA. MK-801 produces a dose dependent depression of NMDA responses with a threshold dose of about 100 nM and complete suppression of responses at 1 μM.

The next assay concerns responses to kainate. As to the kind of experiment: Rat cortical slice, responses to kainate. In kind it is cell-based. To be noted: doses of up to 30 μM.
The subject of assay [3] is NMDA receptor mediated events on central neurons. As to the kind of experiment: Cortical slices from rats pretreated with MK-801, responses to NMDA. The following applies: slices from rats pretreated 1 mg/kg i.p. 2 hours before sacrifice, vs untreated animals. In kind it is in vivo, rat. As for the experimental part: (§2) The responses to NMDA and quisqualate were examined on cortical slices from 4 rats which had been pretreated with MK-801 (1 mg/kg, i.p) 2 hours before they were sacrificed. Responses to NMDA were markedly depressed resulting in a shift to the right of the NMDA dose-response curve of approximately 2.4 fold when compared to the mean NMDA dose-response curved from untreated animals.

The subject of assay [4] is responses to quisqualate. As to the kind of experiment: Cortical slices from rats pretreated with MK-801, responses to quisqualate. To be noted: slices from rats pretreated 1 mg/kg i.p. 2 hours before sacrifice. The assay is classed as in vivo, rat. As for the experimental part: as §2
For assay [5], the system named is gerbils (neuronal degeneration in the hippocampus). As to the kind of experiment: Gerbil ischaemia, 10 minute unilateral carotid artery occlusion, neuronal degeneration in hippocampus. The following applies: 10 min occlusion. The assay is classed as in vivo. As for the experimental part: (§3) (a) Ischaemia was induced in gerbils by 10 or 30 minute unilateral occlusion of the carotid artery. Restoration of blood flow after occlusion was checked visually and the animals were allowed to survive for 4 days. The extent of neuronal degeneration in the hippocampus was assessed. Test animals were treated by administering MK-801 at doses of 1 and 10 mg/kg (i.p.) one hour prior to artery occulsion.

The next assay concerns gerbils. As to the kind of experiment: Gerbil ischaemia, 30 minute unilateral carotid artery occlusion, survival. The assay is classed as in vivo. To be noted: 30 min occlusion. As for the experimental part: as §3
The test system of assay [6] is gerbils (neuronal damage in the hippocampus). As to the kind of experiment: Gerbil right carotid artery occlusion 10 minutes, repeated MK-801 dosing, neuronal damage in hippocampus. In kind it is in vivo. The following applies: 1 mg/kg i.p. one hour before, then 1, 3, 5, 10 and 15 hours following 10 min occlusion. As for the experimental part:
(b) The right carotid artery of gerbils was occluded for 10 minutes and MK-801 at a dose of 1 mg/kg (i.p.) administered one hour before, then 1, 3, 5, 10 and 15 hours following occlusion. The animals were allowed to survive for 4 days and the extent of neuronal damage in the hippocampus was assessed.

For assay [7], the system named is gerbils (neuronal degeneration in the hippocampus). As to the kind of experiment: Gerbil ischaemia, 5 minute occlusion of both carotid arteries, neuronal degeneration in hippocampus. In kind it is in vivo. As for the experimental part:
(c) Ischaemia was induced in gerbils by 5 minute occlusion of both carotid arteries. Restoration of blood flow after occlusion was checked visually and the animals allowed to survive for 4 days. The extent of neuronal degeneration in the hippocampus was measured. Test animals were treated by administering MK-801 at doses of 1, 3 and 10 mg/kg (i.p.) one hour prior to occlusion.

Assay [8] concerns gerbil hippocampus calcium levels. As to the kind of experiment: Prevention of increases in calcium levels in gerbil hippocampus following bilateral artery occlusion. The assay is classed as in vivo. From the text:
(d) The neuroprotective activity of compounds for use in accordance with the invention has also been determined by measuring the ability of the compounds to prevent increases in calcium levels in the gerbil hippocampus following bilateral artery occlusion.

Assay [9] deals with NMDA responses of cortical neurons (NMDA receptor). As to the kind of experiment: Rat cortical slice, responses to NMDA. In kind it is cell-based. To be noted: read-out: Apparent Potency as NMDA Antagonist Kb. As for the experimental part:
as §1
The apparent potencies of MK-801 and its analogs are shown in Table IV; they correlate closely with results from [^3 H]-MK-801 binding studies.

Setting [10] is: Table I, read-out: Displacement potencies Ki.
Setting [11] is: Table II, read-out: Displacement potencies Ki.

As for `CC12NC(Cc3ccccc31)c1ccccc12` (single isomer, unassigned) [L-640,689, 5-methyl-10,11-dihydro-5H-dibenzo[a,d]cyclohepten-5,10-imine], in assay [1] (setting [10]), the Ki turned out to be 40 nM. The “effect on responses to quisqualate” value is “totally unaffected” with responses to quisqualate [2] and “much less affected with only the highest dose slightly depressed” with responses to quisqualate [4]. For the same compound, in the assay on responses to kainate, the “effect on responses to kainate” value was “totally unaffected”. For the same compound, the “shift to the right of the NMDA dose-response curve” value in [3] is listed as “approximately 2.4 fold”. Moreover, the “Number of animals showing damage” value came to 4 in assay [5] (1 mg/kg i.p. one hour prior), 3 in [5] (10 mg/kg i.p. one hour prior) and 1 in [6]. The Number undamaged in assay [5] (1 mg/kg i.p. one hour prior) was 11; in assay [5] (10 mg/kg i.p. one hour prior) it was 12; in [6], 8. Also, the Number dead was 4 in the assay with gerbils (1 mg/kg i.p. one hour prior) and 1 with gerbils (10 mg/kg i.p. one hour prior). In addition, the entries for the “Number of animals surviving” value in the assay on gerbils (1 mg/kg i.p. one hour prior) and in the assay on gerbils (10 mg/kg i.p. one hour prior) were 11 and 14, respectively. The “Percentage of animals with full protection” value was 60 in assay [7] (1 mg/kg i.p. one hour prior to 5 min bilateral occlusion), 80 in [7] (3 mg/kg i.p. one hour prior to 5 min bilateral occlusion) and 70 in assay [7] (10 mg/kg i.p. one hour prior to 5 min bilateral occlusion). Moreover, the ED50 in assay [8] (Meriones unguiculatus, read-out: Depression of Hippocampal [Ca^2+] IC50) was approximately 0.1 mg/kg.
In the case of `CC12NC(Cc3ccccc31)c1ccccc12` (single isomer, unassigned) [L-640,690], the inhibitory constant (Ki) in assay [1] (setting [10]) was 320 nM. Besides, the Kb in assay [9] is 300 nM.
Turning to `CN1C2(C)c3ccccc3C1(C)c1ccccc12` [L-627,891], in [1] (Table III, read-out: Ki), the Ki amounted to 220 nM. Also, in assay [9], the Kb is 1130 nM.
In the case of `CN1C2c3ccccc3C1(C)c1ccccc12` [L-631,876], in assay [1] (Table III, read-out: Ki), the Ki amounted to 6930 nM.
The same measure, in the same setting: the same measure for `CN1C2(C)c3ccccc3C1(C)c1cc(C(F)(F)F)ccc12` [L-631,922]: 109000 nM.
For the compound `CC12c3ccccc3C(C)(c3ccccc31)N2C1CC1` [L-632,938], the Ki in assay [1] (Table III, read-out: Ki) was 4000 nM. Moreover, the antagonist equilibrium constant (Kb) in assay [9] was 640 nM.
The corresponding values for `CCCN1C2(C)c3ccccc3C1(C)c1ccccc12` [L-633,170] are 350 nM and 300 nM.
Regarding `CN1C2(C)c3ccccc3C1(C)c1cc(C#N)ccc12` [L-633,239], in [1] (Table III, read-out: Ki), the Ki was found to be 31300 nM.
Turning to `CCCCN1C2(C)c3ccccc3C1(C)c1ccccc12` [L-633,744], the inhibitory constant (Ki) in assay [1] (Table III, read-out: Ki) amounted to 390 nM. Besides, the antagonist equilibrium constant (Kb) in [9] amounted to 470 nM.
Regarding `CN1C2Cc3ccccc3C1(C)c1ccccc1C2` [L-637,686], the Ki in assay [1] (setting [11]) came out at 1200 nM. Besides, the antagonist dissociation constant (Kb) in assay [9] is 2000 nM.
With `CC12NC(Cc3ccccc31)c1ccccc12` [L-637,939], in [1] (setting [10]), the Ki was determined as 560 nM. In addition, in assay [9], the Kb stood at 90 nM.
As for `CC12NC(Cc3ccccc31)Cc1ccccc12` [L-638,204], the Ki in [1] (setting [11]) came to 140 nM. For the same compound, the Kb in [9] worked out at 310 nM.
`CN1C2Cc3ccccc3C1(C)c1ccccc12` [L-638,275]: in assay [1] (setting [10]), the inhibition constant Ki stood at 830 nM.
The same measure, in the same setting: the same measure for `CN1C2Cc3ccccc3C1c1ccccc12` [L-638,276]: 11900 nM.
As for `C=CCN1C2Cc3ccccc3C1(C)c1ccccc12` [L-639,015], the inhibition constant Ki in [1] (setting [10]) worked out at 3400 nM. Further, the antagonist dissociation constant (Kb) in assay [9] amounted to 3100 nM.
Take `CCC12NC(Cc3ccccc31)c1ccccc12` [L-639,057]: in [1] (setting [10]), the inhibitory constant (Ki) was 50 nM. The Kb in [9] amounted to 500 nM.
Consider `CCC12NC(Cc3ccccc31)Cc1ccccc12` [L-639,420], for which the Ki in [1] (setting [11]) is 120 nM. Besides, the Kb in assay [9] was 200 nM.
As for `CC12NC(Cc3ccc(Br)cc31)c1ccccc12` [L-639,441], the inhibition constant (Ki) in assay [1] (setting [10]) came to 20 nM. Besides, in assay [9], the Kb is 1000 nM.
For `CC12NC(Cc3ccccc31)c1ccc(Br)cc12` [L-639,442], in that order: 180 nM and 400 nM.
In the case of `Clc1ccc2c(c1)C1NC(Cc3ccccc31)C2` [L-639,450], the inhibition constant (Ki) in [1] (setting [11]) turned out to be 150 nM.
For the compound `CCCC12NC(Cc3ccccc31)c1ccccc12` [L-639,470], the Ki in assay [1] (setting [10]) was found to be 8600 nM. In addition, the Kb in assay [9] was 3000 nM.
`OCCC12NC(Cc3ccccc31)c1ccccc12` [L-639,902]: the Ki in assay [1] (setting [10]) was 260 nM. For the same compound, the antagonist equilibrium constant (Kb) in [9] was found to be 200 nM.
The corresponding values for `CN1C2(C)Cc3ccccc3C1(C)c1ccccc12` [L-640,688] are 710 nM and 870 nM.
`CC12c3ccccc3CC(c3ccccc31)N2CCO` [L-641,042]: the inhibition constant Ki in [1] (setting [10]) amounted to 12800 nM.
Still for that read-out and setting: the same measure for `COc1ccc2c(c1)CC1NC2(C)c2ccccc21` [L-641,074]: 605 nM; for `COc1ccc2c(c1)C1Cc3ccccc3C2(C)N1` [L-641,086]: 40 nM.
Turning to `CC12NC(Cc3ccccc31)c1cc(O)ccc12` [L-641,285], the inhibition constant Ki in [1] (setting [10]) worked out at 50 nM. Moreover, the antagonist dissociation constant (Kb) in assay [9] was 100 nM.
For `CC12NC(Cc3cc(O)ccc31)c1ccccc12` [L-641,291], the inhibition constant Ki in [1] (setting [10]) worked out at 340 nM. In addition, in [9], the antagonist dissociation constant (Kb) is 510 nM. Further, the “Depression of Hippocampal [Ca^2+] Relative Potency (MK-801 = 1)” value in assay [8] is recorded as 1.
For the compound `CC12NC(Cc3ccc(Cl)cc31)c1ccccc12` [L-641,294], the inhibition constant (Ki) in assay [1] (setting [10]) worked out at 10 nM. In addition, the Kb in [9] is 50 nM.
On to `CC12NC(Cc3ccccc31)c1ccc(Cl)cc12` [L-641,368], for which the inhibitory constant (Ki) in assay [1] (setting [10]) stood at 80 nM. Besides, the antagonist equilibrium constant (Kb) in [9] is 1000 nM.
Regarding `CN1C2Cc3ccccc3C1(C)c1ccccc12` [L-645,114], in assay [1] (setting [10]), the inhibitory constant (Ki) was determined as 509 nM.
Same read-out and setting: to `CCCN1C2Cc3ccccc3C1(C)c1ccccc12` [L-645,156] belongs 450 nM.
Turning to `CC12NC(Cc3ccccc31)c1ccc(O)cc12` [L-665,039], the inhibitory constant (Ki) in assay [1] (setting [10]) came to 20 nM. The antagonist equilibrium constant (Kb) in assay [9] turned out to be 130 nM. The “Depression of Hippocampal [Ca^2+] Relative Potency (MK-801 = 1)” value in [8] worked out at 0.8.
